Assays:
P. falciparum Dd2 = experiment: Activity against the Dd2 strain of P. falciparum (SYBR Green I, 72 h); type: cell-based; settings: Plasmodium falciparum, DD2, 72 h, P. falciparum Dd2, 72 h incubation
Procedure, shortened: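 Parasites in human RBCs at 1% parasitemia and 1.0% hematocrit, exposed to compounds (0.125% DMSO) for 72 h at 37°C under 93% N2/4% CO2/3% O2. SYBR Green I in saponin/Triton lysis buffer added, 24 h staining, fluorescence read at 485/530 nm. EC50 derived against 20 μM mefloquine background and DMSO baseline.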

[1] = test system: P. berghei (ANKA luc-GFP) sporozoites; experiment: In vivo P. berghei liver stage assay; parameters: species or system CD-1 mice; settings: single PO dose
Procedure: CD-1 mice were inoculated (IV) with 1×10^5 P. berghei (ANKA luc-GFP) sporozoites freshly dissected out from A. stephensi and immediately treated with a single dose (PO) of vehicle or compound 37 (25, 5.0, 1.0 or 0.2 mg/kg) at 0 hour. Bioluminescence signals from the transgenic parasites were monitored by the In vivo Imaging System (IVIS 100, Xenogen; Caliper Life Science).
The ED50 for compound 37 in this assay was 1 mg/kg.

[2] = test system: P. berghei (ANKA GFP-luc); experiment: Prevention of transmission of P. berghei to mosquitoes (oocyst count in midguts); type: in vivo, CD-1 mice / Anopheles stephensi mosquitoes; settings: single ascending doses (all doses), mosquitoes fed Day 2, midguts dissected Day 9
Procedure: CD-1 mice were infected with P. berghei (ANKA GFP-luc) for 96 hours prior to treatment with vehicle [70% PEG400 and 30% (5% glucose in H2O)] or single ascending doses of compound 37 (Day 0). Average % parasitemia on Day 0 was 2.1%. On Day 2 of the study, mice were anesthetized and female Anopheles stephensi mosquitoes were allowed to feed on the mice for 20 minutes. On Day 9, the midguts of the mosquitoes were dissected out, and oocysts were enumerated microscopically (12.5× magnification, oocysts visible as puncta in the control, FIG. 2, Panel A).

[3] = test system: P. berghei (ANKA GFP-luc) blood stage parasites; experiment: Single dose in vivo efficacy, P. berghei blood stage, bioluminescence imaging; parameters: species or system CD-1 mice
Procedure: CD-1 mice (female, 6-7-week-old) were inoculated with 1×10^6 P. berghei (ANKA GFP-luc) blood stage parasites intravenously 24 hours before treatment and compounds were administered as a single 100 or 50 mg/kg dose orally at 0 hour. Parasitemia was monitored by the In vivo Imaging System (IVIS 100, Xenogen; Caliper Life Science) to acquire the bioluminescence signal. Animals with parasitemia exceeding 25% were euthanized.
Infection proceeds rapidly in untreated mice (control), which were euthanized around day 6 of the study. Compound 37 and 68 were tested at different times; thus the artesunate control (ART) is shown for each compound. […] All images are normalized to the same color scale.

For COc1ccc(NC(=O)N2CCCCN3[C@H](CN)[C@H](c4ccc(C#Cc5ccccc5)cc4)[C@@H]3C2)cc1 [Compound 37, (8R,9S,10S)-10-(aminomethyl)-N-(4-methoxyphenyl)-9-[4-(2-phenylethynyl)phenyl]-1,6-diazabicyclo[6.2.0] decane-6-carboxamide], the EC50 (P. falciparum Dd2) was 148 nM, the ED50 ([1]; Plasmodium berghei, in Mus musculus, liver stage) was 1 mg/kg and the “parasitemia after sporozoite inoculation” value ([1]; dosed at ≥5 mg/kg) was “remained parasite free”. The “oocysts in mosquito midguts” value [2] was “no detectable oocysts”, the time parasitemia repressed ([3]; single 100 mg/kg oral dose) was “about 1 week” and the ED25 ([3]; single oral dose, P. berghei blood stage) was 100 mg/kg.

Reference: patent US11325913B2, “Compounds and methods for the treatment of malaria” (THE BROAD INSTITUTE, INC., priority 2013, dated 2022)
